From US12433670B2, “Systems and methods for treating cancer and/or augmenting organ function” (Autonomix Medical, Inc., priority 2013, dated 2025)

Legend:
[1] = system: Mia PaCa2 human pancreatic cancer cells
Method: The following non-limiting example is directed at the treatment of neurogenic pathways for tumor growth and metastasis of pancreatic ductal adenocarcinoma (PDAC). A control experiment was performed with 10 athymic nude mice. The 10 mice were surgically prepared under anesthesia, and the surgical site was cleaned with 75% ethanol solution. A dorsal incision was used to access the spleen, pancreas and associated arterial supply. Mia PaCa2 human pancreatic cancer cells were seeded into the pancreas of each mouse. In 5 of the mice, the celiac ganglion and surrounding nerves were ablated with ethanol. The surgical procedures were completed and the mice were returned to Plexiglass boxes for observation.
The animals were monitored for detectable sickness related behavior and tumor growth was monitored via in vivo bioluminescent imaging techniques (IVIS® imaging system). Animals were monitored for relative changes in the following criteria: detectable sickness-related behavior, hunching and postural changes, signs of tumor growth in the animals' back (visible lumps), increases in piloerection, changes in skin tone and character, and changes in voluntary movement levels and exploratory behavior.

[2] = system: Pancreatic carcinoma cells (Mia PaCa2)
Method: (§1) The following, non-limiting example, is directed to treatment of cancer (e.g., pancreatic cancer), internal pain or neural mediated hyperplasia in organs (e.g., benign prostatic hyperplasia). Pancreatic carcinoma cells (Mia PaCa2) were injected into the head of the pancreas of 10 athymic nude mice (subjects). A bolus of ethanol (50-75 uL) was administered to the celiac ganglion and surrounding nerves of five of the mice (i.e., the EtOH ablation group). The remaining five subjects constitute the untreated control group.
The mice were tracked for 7 weeks post procedure. Tumor growth rates in all subjects were monitored via bioluminescent imaging with an in vivo imaging system, i.e., IVIS Spectrum (Xenogen), twice weekly during the experiment.
(§2) The metastases per group were assessed during necropsy.

[3] = 7 weeks; EtOH group vs control group
Method: as §1
The experiment was terminated at 7 weeks.
as §2

[4] = necropsy at 7 weeks, affected/total mice

Q: What does the source list for `CCO` [EtOH, ethanol]?
A: skin tone and movement versus the control mice ([1]; 2 weeks post-surgery, celiac ganglion and surrounding nerves ablated with ethanol, n=5): improved skin tone and movement; average tumor size relative to the average tumor size in the control group (IVIS luciferase ROI imaging) ([1]; 3 weeks, experimental group vs control group): 55%; median tumor size relative to the control group median tumor size ([2]; 3 weeks): less than 1%; tumor growth rate compared with the control arm (FIG. 11a) ([2]; 3 weeks post procedure, median subject of each group, ethanol 50-75 uL): substantially decreased; difference in bioluminescence between the median responders ([2]; 3 weeks post procedure, treatment arm vs control arm): ~100 ×; mean tumor size relative to the control group ([2]; 3 weeks, 1-sided, alpha=0.05, n=5, p=0.11): half; Occurrence of metastases by group: Liver [2, 4]: 0/5; Occurrence of metastases by group: Local invasion [2, 4]: 2/5; Occurrence of metastases by group: Stomach [2, 4]: 0/5; Occurrence of metastases by group: Spleen ([2]; necropsy at 7 weeks, affected/total mice, nerves from pancreas to spleen not treated): 4/5; incidence of metastases versus the untreated control group ([2]; necropsy at 7 weeks, including non-responder sub-group): considerably lower; tumor mass versus subjects of the control group ([2]; subjects with ablated peri-pancreatic nerves, overall): less tumor mass; overall size difference between subjects in the groups (FIG. 11c) [3]: no overall size difference
